From US6172091A, “1,2-Disubstituted cyclopropanes” (Ortho-McNeil Pharmaceutical, Inc., priority 1999, dated 2001)

Key:
[1] = molecular target: T1, calcium sensing receptor as found in the human parathyroid gland (Homo sapiens, UniProt P41180); test: calcium mobilization fluorescence (FLIPR) assay, agonist mode; format: cell-based; details: transfected HEK 293 cells; 1 mM calcium standard; Tables 2-7; read-out: In Vitro: CS50, where potency is at 50% of the calcium standard potency
T1 construct: expressed in transfected cells; host or cells: HEK 293
T1 sequence (P41180 20-1078): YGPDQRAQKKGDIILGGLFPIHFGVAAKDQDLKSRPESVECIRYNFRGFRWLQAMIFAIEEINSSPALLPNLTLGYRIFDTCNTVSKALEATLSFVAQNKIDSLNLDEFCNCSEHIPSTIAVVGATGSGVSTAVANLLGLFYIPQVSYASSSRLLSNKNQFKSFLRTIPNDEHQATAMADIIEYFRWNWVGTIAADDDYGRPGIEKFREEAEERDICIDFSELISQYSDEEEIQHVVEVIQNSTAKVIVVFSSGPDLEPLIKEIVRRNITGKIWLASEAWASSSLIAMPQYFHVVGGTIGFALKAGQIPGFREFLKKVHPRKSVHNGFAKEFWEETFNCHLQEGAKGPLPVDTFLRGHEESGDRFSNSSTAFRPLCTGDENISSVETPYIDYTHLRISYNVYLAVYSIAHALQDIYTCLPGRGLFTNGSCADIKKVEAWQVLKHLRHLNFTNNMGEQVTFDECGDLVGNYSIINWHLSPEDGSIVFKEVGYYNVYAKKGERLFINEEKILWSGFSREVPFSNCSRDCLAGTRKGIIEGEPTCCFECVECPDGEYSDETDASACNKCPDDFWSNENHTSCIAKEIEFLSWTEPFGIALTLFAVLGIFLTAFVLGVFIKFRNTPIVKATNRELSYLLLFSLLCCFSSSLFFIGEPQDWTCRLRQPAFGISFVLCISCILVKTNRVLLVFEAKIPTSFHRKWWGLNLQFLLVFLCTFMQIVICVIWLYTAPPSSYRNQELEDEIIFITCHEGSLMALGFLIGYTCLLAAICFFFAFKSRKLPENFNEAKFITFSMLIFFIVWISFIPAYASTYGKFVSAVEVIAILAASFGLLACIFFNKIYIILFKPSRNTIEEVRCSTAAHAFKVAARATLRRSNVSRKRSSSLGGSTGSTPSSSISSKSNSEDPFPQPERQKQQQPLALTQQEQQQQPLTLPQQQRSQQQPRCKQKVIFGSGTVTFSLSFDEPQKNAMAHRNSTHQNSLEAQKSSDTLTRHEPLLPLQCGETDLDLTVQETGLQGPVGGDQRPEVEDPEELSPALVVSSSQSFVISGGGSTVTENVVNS
Description: (§1) In vitro potency is measured via calcium mobilization in a fluorescence assay using HEK 293 cells transfected to express the same calcium sensing receptor as found in the human parathyroid gland. In this assay calcium-sensing receptor agonists and antagonists are detected. The assay is conducted in a 96-well plate format with the use of FLIPR (fluorescent imaging plate reader; Molecular Devices, Sunnyvale, Calif.). The HEK 293 cell media is replaced with the fluorescence dye FLUO-3AM and Pluronic detergent in FLIPR assay buffer. Cells are incubated 60 min (in the dark, at room temperature), then washed with assay buffer and placed in FLIPR. Images are collected by FLIPR in the absence of test compound, then in the presence of test compound (at 25 µM) and then after addition of a calcium challenge (at 1 mM). In the agonist assay the difference between maximum and minimum fluorescence values is measured following test compound addition. Hits have a change in fluorescence greater than or equal to 50% of that seen with a 1 mM calcium standard. In the antagonist assay the difference between maximum and minimum fluorescence values is measured following the calcium challenge addition. When compared to challenge in the absence of test compound, hits reduce fluorescence by at least 50%. In vivo activity is measured via parathyroid hormone (PTH) supression by test compounds in a rat model. Compound is administered orally using 0.5% Tween 80 in distilled water as vehicle, with a volume of approximately 10 mL/kg body weight. Blood samples are taken at 15 minutes (and 4 h if required) post oral dosing. Serum PTH levels are determined with an immunoradiometric assay.
(§2) Not all compounds were tested in each of the screens. […] Each entry represents a mixture of cis and trans cyclopropanes (R,S; S,R; R,R; S,S) with R absolute configuration when R^3=CH3. Table 2 lists compounds that are trans at the cyclopropane (R,R; S,S) with R absolute configuration at the benzylamine position, or without stereochemistry at the benzylamine. Table 3 lists compounds with R,R absolute stereochemistry at the cyclopropane and a mixture of stereochemistry at the benzylamine position. 20. In vitro data in Table 1 is percent activation of the calcium-sensing receptor versus baseline. In vitro data in Tables 2-7 is expressed as a CS50, where potency is at 50% of the calcium standard potency, and the unit is μM. In vivo data represents % blood serum PTH vs. vehicle at 30 mg/kg test compound, levels measured after 15 minutes.

[2] = system: parathyroid hormone (PTH); test: parathyroid hormone (PTH) suppression in a rat model; format: in vivo; details: 30 mg/kg test compound, levels measured after 15 minutes; for change in vivo at 30 mg/kg: Rattus norvegicus, po, 0.25 h, read-out: In Vivo: % blood serum PTH vs. vehicle; for In Vivo: % blood serum PTH vs. vehicle: oral, 30 mg/kg
Description: as §1, §2

SMILES	EC50 [1] [µM]	change in vivo at 30 mg/kg [2] [%]	In Vivo: % blood serum PTH vs. vehicle [2] [%]
COc1cccc([C@@H](C)NCC2CC2(C)c2ccccc2)c1 (stereo partly shown) [Compound 68]	> 25	-94.5	
COc1cccc([C@@H](C)NCC2CC2c2ccccc2F)c1 (stereo partly shown) [Compound 17]	5	-94.8	
COc1cccc([C@@H](C)NCC2CC2c2cc(C)ccc2C)c1 (stereo partly shown) [Compound 32]	12.4		-13.5
COc1cccc([C@@H](C)NC[C@@H]2C[C@H]2c2cccc(F)c2)c1 [Compound 22]	9.3		-93.4
COc1cccc([C@@H](C)NCC2CC2c2cccs2)c1 (stereo partly shown) [Compound 25]	7.1	-89	
COc1cccc([C@@H](C)NCC2CC2c2cc(C)ccc2C)c1 (stereo partly shown) [Compound 33]	> 25		-47.6
COc1cccc([C@@H](C)NCC2CC2c2ccccc2F)c1 (single isomer, unassigned) [Compound 18]	11.3		-83.9
COc1cccc([C@@H](C)NC[C@@H]2C[C@@H]2c2cc(C)ccc2C)c1 [Compound 70]	21	-24.7	
CC(NC[C@@H]1C[C@H]1c1ccccc1)c1cccc(C(F)(F)F)c1 (stereo partly shown) [Compound 41]	> 25	-21.4	
COc1cccc([C@@H](C)NCC2CC2c2ccccc2F)c1 (single isomer, unassigned) [Compound 19]	9.6		-89.2
c1ccc([C@@H]2C[C@H]2CNCc2ccccn2)cc1 (relative stereo) [Compound 28]	> 25	72	
C[C@@H](NC[C@@H]1C[C@H]1c1ccccc1)c1cccc(OC2CCCC2)c1 [Compound 52]	12.2	26.6	
CC(NC[C@@H]1C[C@H]1c1ccccc1)c1ccc2c(c1)OCO2 (stereo partly shown) [Compound 47]	> 25	-67.3	
COc1cccc([C@@H](C)NCC2CC2c2ccccc2C(F)(F)F)c1 (stereo partly shown) [Compound 14]	52.2	-34.7	
c1ccc([C@@H]2C[C@H]2CNCc2cccnc2)cc1 (relative stereo) [Compound 29]	> 25	87.8	
COc1cccc([C@@H](C)NCC2CC2c2ccc(C(F)(F)F)cc2)c1 (stereo partly shown) [Compound 16]	> 25	-14.4	
c1ccc([C@@H]2C[C@H]2CNCc2ccncc2)cc1 (relative stereo) [Compound 30]	> 25	70.1	
COc1cccc([C@@H](C)NCC2CC2c2ccc(F)cc2)c1 (stereo partly shown) [Compound 23]	13.5	-55	

Second part, led by results:

EC50 [1] [µM]	SMILES	change in vivo at 30 mg/kg [2] [%]	In Vivo: % blood serum PTH vs. vehicle [2] [%]
> 25	CC(NC[C@@H]1C[C@H]1c1ccccc1)c1cccc(Cl)c1 (stereo partly drawn) [Compound 46, N-((R,R)-2-phenylcyclopropanylmethyl)-1-(3-chlorophenyl)ethylamine]	-15.9	
> 25	CC(C)Oc1cccc([C@@H](C)NC[C@@H]2C[C@H]2c2ccccc2)c1 [Compound 51]	-7.3	
> 25	COc1cccc([C@@H](C)N(C[C@@H]2C[C@H]2c2ccccc2)C(C)=O)c1 [Compound 53]	-6.4	
> 25	COc1cccc(CNC[C@@H]2C[C@H]2c2ccccc2)c1 (relative stereo) [Compound 31]	-26.5	
> 25	COc1cccc([C@H](C)NC[C@@H]2C[C@H]2c2ccccc2)c1 [Compound 63]	-40.1	
> 25	COc1cccc([C@H](C)NC[C@H]2C[C@@H]2c2ccccc2)c1 [Compound 64]	-11.7	
17.6	COc1cccc([C@@H](C)NC[C@H]2C[C@H]2c2ccccc2)c1 [Compound 62]	0	
> 25	COc1cccc([C@@H](C)N(C[C@@H]2C[C@H]2c2ccccc2)C(=O)OCC(C)C)c1 [Compound 57]	-5.3	
10.1	COc1cccc([C@@H](C)NCC2C(C)C2c2ccccc2)c1 (stereo partly shown) [Compound 67]	-92.9	
11	COc1cccc([C@@H](C)NC[C@@H]2C[C@H]2c2cccc(F)c2)c1 (mixture of isomers) [Compound 20, N-(trans-2-(3-fluorophenyl)cyclopropanylmethyl)-1-(R)-(3-methoxyphenyl)ethylamine]		-95.2
> 25	CCC(=O)N(C[C@@H]1C[C@H]1c1ccccc1)[C@H](C)c1cccc(OC)c1 [Compound 54]	-33.7	
> 25	Cc1cccc(C(C)NC[C@@H]2C[C@H]2c2ccccc2)c1 (stereo partly shown) [Compound 40]	-51.2	
> 25	COc1cccc([C@H](C)NC[C@@H]2C[C@@H]2c2ccccc2)c1 [Compound 66]	-61.8	
5	COc1cccc([C@@H](C)NC[C@@H]2C[C@H]2c2ccccc2)c1 [Compound 49, N-((R,R)-2-phenylcyclopropanylmethyl)-1-(R)-(3-methoxyphenyl)ethylamine]	-83.6	
> 25	COc1cccc([C@@H](C)N(C[C@@H]2C[C@H]2c2ccccc2)C(=O)CNC(=O)OC(C)(C)C)c1 [Compound 58]	-12.7	
12.9	COc1cccc([C@@H](C)NC[C@H]2C[C@@H]2c2ccccc2)c1 [Compound 60]	-42.1	
> 25	CCc1cccc(C(C)NC[C@@H]2C[C@H]2c2ccccc2)c1 (stereo partly shown) [Compound 42]	-78.9	
> 25	COC(=O)N(C[C@@H]1C[C@H]1c1ccccc1)[C@H](C)c1cccc(OC)c1 [Compound 56]	-40.9	
8.8	COc1cccc([C@@H](C)NCC2CC2c2ccccc2C)c1 (stereo partly shown) [Compound 12]	-95.8	
11.9	CCOc1cccc([C@@H](C)NC[C@@H]2C[C@H]2c2ccccc2)c1 [Compound 50, N-((R,R)-2-phenylcyclopropanylmethyl)-1-(R)-(3-ethoxyphenyl)ethylamine]	-57	
> 25	COc1cccc([C@H](C)NC[C@H]2C[C@H]2c2ccccc2)c1 [Compound 65]	-38.8	
> 25	CC(NC[C@@H]1C[C@H]1c1ccccc1)c1cccc(F)c1 (stereo partly shown) [Compound 45]	-19.6	
8.7	C[C@@H](NC[C@@H]1C[C@H]1c1ccccc1)c1cccc(O)c1 [Compound 48]	-41.7	
